The target in assay [1] is T1, MMP-13 (Homo sapiens, UniProt P45452).
T1 construct: purchased Calbiochem
In words: General MMP Inhibition Assay, fluorescence quench (MMP-13). It counts as biochemical. The following applies: room temperature. The protocol: (§1) General MMP Inhibition Assays:
(§2) Inhibition of matrix metalloprotease activity was determined using a fluorescence quench assay with appropriate substrate. For example, MMP activity was determined using MMP activated using trypsin, according to Lark et al, Connective Tissue Res. 25, 52 (1990). The MMP is incubated at room temperature in a microtitre plate in a total volume of 100 ul, containing 0.15 M Tris Cl, 15 mM CaCl2, 0.2 M NaCl, pH 7.6 (assay buffer); inhibitor at concentrations up to 100 uM, with no more than 2% DMSO final concentration, 10 uM substrate (such as SDP-3815-PI for MMP-1, Peptides International). The MMP concentration is <10 nM, and determined empirically with the appropriate substrate to give at least a 20-fold increase in fluorescence emission in 30 min. Fluorescent excitation wavelength was 355 nm, emission wavelength 400–460 nm, and data points are collected to generate slope (change in fluorescence with time). Percent inhibition for each concentration is calculated from the slope at time zero, and IC50 values from the concentration dependence. MMP-1, 2, 3, 7, 9, 13, 14 may all be assayed in the same manner, using commercially available substrates reported to be effective for each enzyme. Enzymes were obtained from Calbiochem and activated using the same trypsin method.

Assay [2] has as its target T2, MMP-3 (Homo sapiens, UniProt P08254).
T2 construct: purchased Calbiochem
In words: General MMP Inhibition Assay, fluorescence quench (MMP-3). The format is biochemical. The settings on record: room temperature. The protocol:
as §1, §2

Assay [3] addresses T3, human recombinant collagenase (Homo sapiens, UniProt P03956).
T3 construct: made in house; host or cells: E. coli
T3 sequence (P03956 100-469): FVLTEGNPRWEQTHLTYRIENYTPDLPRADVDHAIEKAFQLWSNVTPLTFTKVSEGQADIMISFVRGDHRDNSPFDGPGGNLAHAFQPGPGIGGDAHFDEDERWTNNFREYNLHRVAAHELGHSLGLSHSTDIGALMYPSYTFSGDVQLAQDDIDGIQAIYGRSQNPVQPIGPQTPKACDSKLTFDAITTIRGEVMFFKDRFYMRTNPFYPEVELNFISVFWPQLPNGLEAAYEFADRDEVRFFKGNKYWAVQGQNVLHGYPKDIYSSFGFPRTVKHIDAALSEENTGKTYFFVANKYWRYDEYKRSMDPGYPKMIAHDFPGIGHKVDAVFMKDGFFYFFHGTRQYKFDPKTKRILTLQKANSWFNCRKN
In words: Collagenase Inhibition Assay. It counts as biochemical. The settings on record: 37° C., 18 h, 3H type 1 bovine collagen; read-out: IC50, collagenase inhibition (procedure 2). As for the experimental part:
Procedure 2: The ability of test compounds to inhibit matrix metalloproteases was investigated using the following procedures.
Collagenase Inhibition Assay:
The potency of compounds to act as inhibitors of collagenase was determined by the method of Cawston and Barrett (Anal. Biochem. 99, 340–345, 1979), hereby incorporated by reference, whereby a 1 mM solution of the inhibitor being tested or dilutions thereof, was incubated at 37° C. for 18 h with collagen and human recombinant collagenase, from synovial fibroblasts cloned, expressed and purified from E. Coli, (buffered with 150 mM Tris, pH 7.6, containing 15 mM calcium chloride, 0.05% Brij 35, 200 mM sodium chloride and 0.02% sodium azide). The collagen was acetylated ^3H type 1 bovine collagen prepared by the method of Cawston and Murphy (methods in Enzymology 80, 711, 1981) The samples were centrifuged to sediment undigested collagen and an aliquot of the radioactive supernatant removed for assay on a scintillation counter as a measure of hydrolysis. The collagenase activity in the presence of 1 mM inhibitor, or dilution thereof, was compared to activity in a control devoid of inhibitor and the results reported as that concentration effecting 50% of the collagenase (IC50).

Assay [4] concerns CD23 cleavage activity (release of soluble CD23) in RPMI 8866 cell plasma membranes. Put plainly: RPMI 8866 Cell Membrane CD23 Cleavage Activity Assay. It counts as biochemical, human. The following applies: RPMI 8866 plasma membranes, 37° C., sCD23 by EIA; read-out: IC50, inhibition of production of sCD23. As for the experimental part:
Procedure 1: The ability of test compounds to inhibit the release of soluble CD23 was investigated by use of the following procedure.
RPMI 8866 Cell Membrane CD23 Cleavage Activity Assay:
Plasma membranes from RPMI 8866 cells, a human Epstein-Barr virus transformed B-cell line (Sarfati et al., Immunology 60 [1987] 539–547) expressing high levels of CD23 are purified using an aqueous extraction method. Cells resuspended in homogenization buffer (20 mM HEPES pH 7.4, 150 mM NaCl, 1.5 mM MgCl2, 1 mM DTT) are broken by N2 cavitation in a Parr bomb and the plasma membrane fraction mixed with other membranes is recovered by centrifugation at 10,000×g. […]
The fractionated membranes are incubated at 37° C. for times up to 4 hrs to produce fragments of CD23 which are separated from the membrane by filtration in 0.2 micron Durapore filter plates (Millipore) after quenching the assay with a non-selecitve MMP inhibitor, e.g. 5 uM Preparation 1 from WO 95/31457 ([4-(N-Hydroxyamino)-2-(R)-isobutyl-3-(S)-(2-thiophenethiomethyl)succinyl]-(S)-phenylalanine-N-methylamide sodium salt, prepared according to the procedure described in Example 11 of WO 90/05719). sCD23 released from the membrane is determined using the EIA kit from The Binding Site (Birmingham, UK) or a similar one utilising MHM6 anti-CD23 mAb [Rowe et al., Int. […]

For 2 compounds, IC50 results are on record in patent US7038055B2, “Sulfone derivatives and their use in the treatment of autoimmune diseases and allergies” (SmithKlineBeecham plc, priority 2001, dated 2006).

What is called pIC50 is −log10 of the IC50, conventionally taken in molar units.

pIC50: −log10 of the molar value.

T2 sequence (P08254 100-477, species assumed): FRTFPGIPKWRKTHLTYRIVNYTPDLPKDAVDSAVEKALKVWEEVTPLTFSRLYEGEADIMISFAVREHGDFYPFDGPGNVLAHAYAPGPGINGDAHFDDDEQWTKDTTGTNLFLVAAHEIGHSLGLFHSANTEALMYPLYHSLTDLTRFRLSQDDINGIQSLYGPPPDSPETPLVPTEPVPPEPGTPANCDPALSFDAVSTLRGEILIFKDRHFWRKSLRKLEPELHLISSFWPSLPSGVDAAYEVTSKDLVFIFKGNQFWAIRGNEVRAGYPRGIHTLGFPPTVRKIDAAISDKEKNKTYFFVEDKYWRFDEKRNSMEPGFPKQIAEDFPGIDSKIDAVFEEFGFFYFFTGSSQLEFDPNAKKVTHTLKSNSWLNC

In turn, `CO[C@@H](C)C(CS(=O)(=O)Cc1cnc2ccccc2c1)N(O)C=O` (stereo in doubt) [Example 2, N-[(2R,3S)-3-methoxy-1-(quinolin-3-yl-methanesulfonyl)butan-2-yl]-hydroxyformamide] showed a pIC50 in assay [1] of 5.52.

Turning to `CO[C@H](C)[C@@H](CS(=O)(=O)Cc1cnc2ccccc2c1)N(O)C=O` [Example 1, N-[(2S,3R)-3-methoxy-1-(quinolin-3-yl-methanesulfonyl)butan-2-yl]-hydroxyformamide], the pIC50 is less than 5.00 in assay [2], less than 5.00 in assay [3], 7.70 in assay [4] and 5.59 in assay [1].
